For 49 molecules, Tm shift results are on record in PubChem BioAssay AID395 (SGCOxCompounds, 2006).

The target of the assay is Serine/threonine-protein kinase 16 (Homo sapiens) (UniProt O75716). Put plainly: STK16 binders by thermal stabilization, biophysical, recombinant human kinase, DSF (AID 395). The following applies: SYPRO orange, at 10 µM, protein 2 µM, buffer 10 mM HEPES, stronger effect = higher value.
Chain of Serine/threonine-protein kinase 16 (Homo sapiens) (O75716 whole entry, looked up): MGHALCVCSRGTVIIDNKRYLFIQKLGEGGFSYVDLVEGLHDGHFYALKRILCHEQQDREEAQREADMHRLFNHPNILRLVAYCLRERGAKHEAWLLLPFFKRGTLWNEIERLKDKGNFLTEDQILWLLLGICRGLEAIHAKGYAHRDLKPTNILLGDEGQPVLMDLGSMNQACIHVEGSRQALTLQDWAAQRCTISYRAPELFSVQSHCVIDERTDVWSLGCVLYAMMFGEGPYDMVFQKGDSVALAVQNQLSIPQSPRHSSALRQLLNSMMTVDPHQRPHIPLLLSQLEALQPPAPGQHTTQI

On to `Clc1cccc(Nc2ccn3ncc(-c4ccsc4)c3n2)c1`, for which the Tm shift is 3.69 °C. As to `Cc1cc(Nc2nc(-c3ccccc3)nc3ccccc23)n[nH]1`, for the setting “pH 7.5, NaCl 150 mM”, the Tm shift was 11.1 °C. On to `Nc1cccc(-c2cc3c(Oc4cccc(O)c4)ncnc3[nH]2)c1`, for which the Tm shift (pH 7.5, NaCl 150 mM) was 5.9 °C. Consider `Fc1ccc(CNc2ccc3ncc(-c4ccco4)n3n2)cc1`, for which the Tm shift was 4.18 °C.

Consider `Cc1cc(C=C2C(=O)C=CC2=O)cc(C)c1O`, for which the Tm shift was 3.24 °C. Turning to `OCC(O)CCO/N=C1/C(c2c(O)[nH]c3ccccc23)=Nc2ccccc21` (stereo unspecified), under “pH 7.5, NaCl 150 mM”, the Tm shift is 11.7 °C.

`NS(=O)(=O)c1ccc(Nc2nc(OCC3CCCCC3)c3[nH]cnc3n2)cc1`: the Tm shift (pH 7.5, NaCl 150 mM) was 4.1 °C. The same measure, in the same setting: the figure for `Nc1nc(Nc2ccc(S(N)(=O)=O)cc2)nn1C(=S)Nc1c(F)cccc1F` is 7.8 °C. In the case of `CC1N=C2SC=CN2C(=O)C1CCN1CCC(=C(c2ccccc2)c2ccc(F)cc2)CC1` (stereo unspecified), the Tm shift was 3.67 °C. The Tm shift (pH 7.5, NaCl 150 mM) is 3.2 °C. Take `O=c1c(O)c(-c2ccc(O)cc2)oc2cc(O)cc(O)c12`: under “pH 7.5, NaCl 150 mM”, the Tm shift is 3.87 °C. As to `Cc1nc(N)sc1-c1ccnc(Nc2cccc(-n3oo3)c2)n1`, the Tm shift (pH 7.5, NaCl 150 mM) was 10.7 °C. The same measure, in the same setting: the result for `O=c1cc(-c2ccc(O)c(O)c2)oc2cc(O)cc(O)c12` reads 4.82 °C. For the molecule `O=C1Nc2ccccc2/C1=C/c1ccc[nH]1`, the Tm shift is 4.28 °C. With `O=C1NC(=O)C(c2c[nH]c3ccccc23)=C1c1c[nH]c2ccccc12`, the Tm shift (pH 7.5, NaCl 150 mM) was 3.4 °C. Same read-out and setting: the figure for `Cn1cc(/C=C2\C(=O)Nc3ccc(S(N)(=O)=O)cc32)c2ccccc21` is 4.8 °C; for `O=C(Nc1cccc(Nc2nccc(Nc3cccc(C(F)(F)F)c3)n2)c1)C1CC1` it is 5.75 °C; for `Cc1c(O)cc(O)c2c1OC(c1ccc(O)c(O)c1)C(=O)C2=O` (stereo unspecified) it is 3.29 °C.

Regarding `NCCCn1cc(C2=C(c3c[nH]c4ccccc34)C(=O)NC2=O)c2ccccc21`, the Tm shift (pH 7.5, NaCl 150 mM) is 4.96 °C. Take `O=c1c(O)c(-c2ccc(O)c(O)c2)oc2cc(O)cc(O)c12`: the Tm shift was 4.78 °C. For the same molecule, the Tm shift (pH 7.5, NaCl 150 mM) was 4.75 °C. Turning to `O=Nc1c(-c2c(O)[nH]c3ccc(S(O)(O)O)cc23)[nH]c2ccccc12`, under “pH 7.5, NaCl 150 mM”, the Tm shift is 5.7 °C.

As to `c1ccc(-c2cnc3ccc(NCc4cccs4)nn23)cc1`, the Tm shift is 3.62 °C. The same measure, in the same setting: the figure for `O=c1cc(-c2ccc(O)cc2)oc2cc(O)cc(O)c12` is 4.78 °C.

For `c1csc(-c2cnc3ccc(NCC4CC4)nn23)c1`, the Tm shift is 4.3 °C. Still for that read-out and setting: the figure for `O=C1c2ccccc2-c2n[nH]c3cccc1c23` is 6.85 °C; for `O=c1[nH]c2ncc(-c3cccnc3)nc2n1C1CCCC1` it is 5.29 °C.

As for `O=Nc1c(-c2c(O)[nH]c3ccccc23)[nH]c2ccccc12`, the Tm shift is 5.13 °C. For the molecule `Clc1cccc(Nc2ccn3ncc(-c4cccnc4)c3n2)c1`, the Tm shift is 5.48 °C.

For the molecule `Clc1ccc(-c2cnn3ccc(NCc4cccnc4)nc23)cc1`, the Tm shift was 3.85 °C. `NC(=O)Nc1sc(-c2ccccc2)cc1C(N)=O`: the Tm shift (pH 7.5, NaCl 150 mM) is 4.5 °C. `CC(C)c1nn(-c2c(Cl)cccc2Cl)c2nc(Cc3ccc(OCCO)cc3)[nH]c(=O)c12`: the Tm shift (pH 7.5, NaCl 150 mM) was 3.5 °C. `COc1ccc2c(c1)/C(=C/c1cnc[nH]1)C(=O)N2`: the Tm shift is 4.35 °C.

As for `O=C1NCc2c1c1c3ccccc3[nH]c1c1[nH]c3ccccc3c21`, the Tm shift (pH 7.5, NaCl 150 mM) was 3.9 °C. The same measure, in the same setting: the result for `O=c1[nH]c(O)c2c1c1c3ccccc3nc1n1cncc21` reads 5.4 °C.

Consider `O=C1Nc2ccccc2/C1=C\c1cnc[nH]1`, for which the Tm shift was 7.49 °C. Consider `CC(O)O/N=C1/C(c2c(O)[nH]c3cc(Br)ccc23)=Nc2ccccc21` (stereo unspecified), for which the Tm shift (pH 7.5, NaCl 150 mM) was 4.2 °C. As to `COC(=O)c1cnc2oc3ccc(O)cc3c2c1-c1ccccc1`, the Tm shift was 5.35 °C. As for `O=c1c(O)c(-c2ccc(O)c(O)c2)oc2cc(O)ccc12`, the Tm shift (pH 7.5, NaCl 150 mM) is 8.54 °C.

For the molecule `O=Nc1c(-c2c(O)[nH]c3ccc(I)cc23)[nH]c2ccccc12`, the Tm shift (pH 7.5, NaCl 150 mM) was 4.2 °C. Same read-out and setting: the figure for `O=c1cc(-c2ccccc2)oc2cc(O)cc(O)c12` is 5.74 °C; for `O=C1C(=O)C(c2cccc(O)c2)Oc2ccccc21` (stereo unspecified) it is 4.41 °C; for `N#C/C(=C1\Nc2ccccc2S1)c1ccnc(NCCc2cccnc2)n1` it is 5.5 °C.

Regarding `CCN(CC)CCNC(=O)c1c(C)[nH]c(/C=C2\C(=O)Nc3ccc(Cl)cc32)c1C`, the Tm shift (pH 7.5, NaCl 150 mM) is 6 °C. The same measure, in the same setting: the result for `N=C(N)SCCCn1cc(C2=C(c3c[nH]c4ccccc34)C(=O)NC2=O)c2ccccc21` reads 4.3 °C; that for `COc1cc(C2Oc3cc(O)cc(O)c3C(=O)C2=O)ccc1O` (stereo unspecified), 3.97 °C. For the molecule `CC(C)(C)c1nc2c3cc[nH]c(=O)c3c3cc(F)ccc3c2[nH]1`, the Tm shift was 3.46 °C.

On to `Nc1ncnc2c1c(I)cn2[C@@H]1O[C@H](CO)C(O)C1O` (stereo partly specified), for which the Tm shift was 3.88 °C.

With `O=C(c1ccc(Nc2nccc(-c3cc4ccccc4s3)n2)cc1)N1CCC(N2CCCC2)CC1`, the Tm shift (pH 7.5, NaCl 150 mM) is 8.9 °C. For `CC(C)C(CO)Nc1nc(Nc2cccc(Cl)c2)c2ncn(C(C)C)c2n1` (stereo unspecified), the Tm shift was 3.15 °C. Same read-out and setting: the figure for `Clc1cccc(-c2cnc3ccc(NC4CCOCC4)nn23)c1` is 4 °C.
